Patent publication EP4663242A1, “TARGETING THE ENERGY COUPLING FACTOR (ECF) TRANSPORTERS AS NOVEL ANTIMICROBIAL TARGET” (Helmholtz-Zentrum für Infektionsforschung GmbH, priority 2024, dated 2025)
≈ marks a conversion by molar mass, not a printed value. Where “and” joins values, the source holds several entries; their conditions need not be identical. Equal values may be shown once. Read-outs that look alike come from different tables or passages of the source.

Legend:
ECF-FoIT2 = experiment: Uptake assay into proteoliposome (radiolabelled folate uptake); format: biochemical, L. delbrueckii; details: folate uptake into proteoliposomes, n = 2, mean ± SD
Protocol: In summary, both 1 and 22 are capable of inhibiting the ECF-FoIT2 in a proteoliposome-based uptake assay which further complements the results obtained from the whole-cell uptake assay. Table 4. Relative inhibition of ECF-FoIT2 in proteoliposome uptake assay
4.3.2. Uptake assay into proteoliposome
This assay was performed based on the protocol reported by Swier et al. with minor modifications.^18

E. faecium DSM-17050 = experiment: MIC screening against Gram-positive pathogens; format: cell-based; details: Enterococcus faecium
Protocol: (§1) 4.3.3. Screening against clinically relevant Gram-positive pathogens.
(§2) All microorganisms were obtained from the German Collection of Microorganisms and Cell Cultures (DSMZ) and were handled according to standard procedures. Bacteria were inoculated into tryptic soy broth (TSB) to obtain a final inoculum of […] colony-forming units (CFU)/mL. The tested compounds were prepared as DMSO stocks (20 mM). Serial dilutions of derivatives in the growth medium (0.06 to 128 µM) were prepared in sterile 96-well plates, and the bacterial suspensions were added. Growth inhibition was assessed after static incubation at 37 °C for 24 h. S. pneumoniae was grown at 5% CO2. MIC values are defined as the lowest compound concentration where no visible growth is observed.

E. faecium DSM-20478 = experiment: MIC screening against Gram-positive pathogens; format: cell-based; details: Enterococcus faecium
Protocol: as §1, §2

[1] = test system: Enterococcus faecalis DSM-20477; experiment: MIC screening against Gram-positive pathogens; format: cell-based
Protocol: as §1, §2

S. pneumoniae DSM-11865 = experiment: MIC screening against Gram-positive pathogens; format: cell-based; details: Streptococcus pneumoniae
Protocol: as §1, §2

[2] = test system: Streptococcus pneumoniae DSM-20566; experiment: MIC screening against Gram-positive pathogens; format: cell-based; details: 37 °C, 24 h
Protocol: as §1, §2

| SMILES | Relative inhibition (%) at 150 µM (ECF-FoIT2) | MIC (E. faecium DSM-17050; DSM17050, 24 h) | MIC (E. faecium DSM-20478; DSM20478, 24 h) | MIC ([1]; Enterococcus faecalis, DSM20477, 24 h) | MIC (S. pneumoniae DSM-11865; DSM11865, 24 h) | MIC ([2]; DSM20566, TSB, 5% CO2, read-out: MIC) | MIC ([2]; TSB, 5% CO2) | MIC (E. faecium DSM-17050; DSM17050, E. faecium DSM-17050, vancomycin-resistant strain, TSB, 37 °C, 24 h, read-out: MIC) | MIC (E. faecium DSM-20478; DSM20478, E. faecium DSM-20478, TSB, 37 °C, 24 h, read-out: MIC) | MIC ([1]; DSM20477, Enterococcus faecalis DSM-20477, TSB, 37 °C, 24 h, read-out: MIC) | MIC (S. pneumoniae DSM-11865; DSM11865, S. pneumoniae DSM-11865, penicillin-resistant strain, TSB, 37 °C, 24 h, 5% CO2, read-out: MIC) |
| --- | --- | --- | --- | --- | --- | --- | --- | --- | --- | --- | --- |
| O=C(O)CCc1nc(-c2ccc(Cl)cc2)c(-c2ccccc2)o1 [Compound 1, 3-(4-(4-Chlorophenyl)-5-phenyloxazol-2-yl)propanoic acid] | 44% and 44 ± 2% | > 128 µM | > 128 µM | > 128 µM | > 128 µM |  |  |  |  |  |  |
| O=C(O)c1cccc(-c2nc(-c3ccc(Cl)c(Cl)c3)c(-c3cccc(C(F)(F)F)c3)o2)c1 [Compound 22, 3-(4-(3,4-Dichlorophenyl)-5-(3-(trifluoromethyl)phenyl)oxazol-2-yl)benzoic acid] | 95% and 95 ± 1% |  |  |  |  | 0.5 to 1 µM (≈ 0.239 to 0.478 µg/mL) | 0.5 to 1 µM | 2 µM (≈ 0.957 µg/mL) | 4 µM (≈ 1.91 µg/mL) | 4 µM (≈ 1.91 µg/mL) | 0.5 to 1 µM (≈ 0.239 to 0.478 µg/mL) |
